Experimental data published in paper PMC6546350 (RNA Biology, 2019).

Molecular target: T1, RlmJ (Escherichia coli, UniProt P37634)
T1 sequence (P37634 1-280): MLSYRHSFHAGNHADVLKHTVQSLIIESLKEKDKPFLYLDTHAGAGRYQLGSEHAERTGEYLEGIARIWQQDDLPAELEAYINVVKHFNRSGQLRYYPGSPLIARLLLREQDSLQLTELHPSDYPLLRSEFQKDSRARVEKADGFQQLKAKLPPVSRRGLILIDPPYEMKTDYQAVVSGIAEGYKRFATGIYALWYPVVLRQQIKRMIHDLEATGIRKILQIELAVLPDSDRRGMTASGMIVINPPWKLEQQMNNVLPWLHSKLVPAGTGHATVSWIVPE
Assay: ITC and DSF
Assay type: binding

Kd: 1700 ± 200 nM
SMILES: Nc1ncnc2c1ncn2[C@@H]1O[C@H](C[C@@H](N)CC[C@H](N)C(=O)O)[C@@H](O)[C@H]1O [sinefungin]
